Where “and” joins values, the source holds several entries; their conditions need not be identical. Equal entries are not always repeated.
Legend:
[1] = system: MMP-2; assay: Inhibition constant for MMP-2; assay type: biochemical; details: more potent than the parent compound
[2] = system: TBI in adult mice; details: equivalent dose; cited from earlier work
[3] = system: controlled cortical impact TBI at p21; assay: Morris water maze at adulthood after TBI at p21; assay type: in vivo, male C57Bl/6J mice; details: 25 mg/kg s.c. at 2, 4, 24, 48 h post-injury
Procedure: (§1) The controlled cortical impact model of TBI was used as previously described. TBI to the p21 mouse approximates a toddler-aged child, based upon the structural, biochemical and behavioral characteristics of this age. Pups were anaesthetized with 1.25% 2,2,2-tribromoethanol (Avertin; Sigma-Aldrich, St. Louis, MO) in isotonic saline (i.p. bolus at 0.02 mL/g body weight). After craniotomy, mice were subjected to a controlled cortical impact at 4.5 m/s velocity and 1.73 mm depth of penetration, for a sustained depression of 150 ms, using a 3.0 mm convex impactor tip. Mice were maintained on a water-circulating heating pad throughout surgery and recovery. Following impact, the scalp was closed with sutures and each animal administered 0.5 ml of isotonic saline subcutaneously (s.c.) to prevent post-operative dehydration. Sham-operated mice underwent identical surgical procedures, including craniotomy, without receiving the cortical impact. All mice were closely monitored for 1–2 hours post-surgery until return of the righting reflex and full mobilization. Mice were then returned to group-housing, and weighed post-surgery at days 1, 3, and weekly thereafter till the end of the study.
The treatment regime was based upon several considerations. […] Thirdly, we limited treatment to a period of 48 h post-injury in order to minimize potential off-target effects on ongoing brain development processes at this time, given the known roles that these gelatinases play in postnatal synaptic maturation. For acute studies (gelatin zymography and histology) animals were euthanized at 4 hours and for in situ zymography, they were euthanized 1 hour after the last injection. For long-term studies (behavioral and cognitive assessments and histology) animals were euthanized at ~2 months post-injury. Euthanasia was by overdose with 2.5% Avertin i.p. followed by decapitation or cardiac transperfusion as described below.
Mice were randomized for behavior testing and all behavior testing was performed by individuals blinded to injury and treatment. Behavioral and cognitive testing of brain injured mice and sham controls commenced at 2 months post-injury (~ 3 months of age; n = 15/group). An extensive battery of behavioral assessments was performed in the following order: open field, rotarod, elevated plus maze, three-chamber social task, resident-intruder, and Morris water maze (MWM). […]
The MWM was used to assess spatial learning and memory as previously described, using a 140 cm-diameter circular pool filled with opaque water (22°C). […] Movements were tracked with an overhead mounted video camera interfaced with Noldus EthoVision software (Noldus IT, Tacoma, WA), for quantification of the cumulative distance to and latency to locate the platform, as well as swim velocity (cm/s). […]

[4] = Pharmacokinetics and brain distribution after multiple-dose s.c. administration; assay type: in vivo, p21 naïve male C57Bl/6J mice
Procedure: Dosing route and concentration were similar to what we proposed to do for treatment for the current study. Terminal blood samples were collected in heparinized tubes through the posterior vena cava and centrifuged to obtain plasma (n = 3 per time point). Whole brain samples were harvested after transcardial perfusion with saline, immediately flash frozen in liquid nitrogen, and stored at -80°C until analysis.

[5] = system: controlled cortical impact TBI at p21; assay: Acute cell death (TUNEL, activated caspase-3) at 48 h after TBI at p21; assay type: in vivo, male C57Bl/6J mice; details: 48 h post-injury; 25 mg/kg s.c.
Procedure: as §1, with “Sham-operated mice underwent identical surgical procedures, including craniotomy, without receiving the cortical impact.” left out, “Mice were then returned to group-housing, and weighed post-surgery at days 1, 3, and weekly thereafter till the end of the study.” left out
Brain injured animals and sham controls were euthanized at 2 d post-injury. Dying cells were detected by double-labeling for terminal deoxynucleotidyl transferase-mediated dUTP nick 3’-end labeling (TUNEL) in combination with immunofluorescence for activated (cleaved) caspase-3, a hallmark of apoptosis. […] Immuno-positive cells with DAPI-positive nuclei were counted using Metamorph analysis software (Molecular Devices, Sunnyvale, CA).

[6] = 25 mg/kg s.c. at 0, 2 and 24 h, p21 mice
[7] = 0.5 h after final dose, 25 mg/kg s.c. at 0, 2 and 24 h, p21 mice
[8] = 1 h after final dose, 25 mg/kg s.c. at 0, 2 and 24 h, p21 mice
[9] = 2 h after final dose, 25 mg/kg s.c. at 0, 2 and 24 h, p21 mice

Structure (SMILES): O=S(=O)(CC1CS1)c1ccc(Oc2ccc(O)cc2)cc1 (centres unmarked) [p-OH SB-3CT]
- potency at inhibiting MMP-2 relative to parent compound SB-3CT [1]: 5 fold
- functional and neuropathological outcomes after severe TBI in adult mice [2]: treatment-dependent improvement in functional and neuropathological outcomes
- MWM probe trials, effect of injury on spatial memory retention ([3]; four probe trials): not rescued by acute inhibition of gelatinases with p-OH SB-3CT
- MWM cumulative distance to the target, visible and hidden sessions ([3]; tested at adulthood): no effect of p-OH SB-3CT treatment
- MWM latency to reach the platform, visible and hidden platform sessions ([3]; tested at adulthood): did not modify this injury-related behavior
- MWM swim velocity during visible platform trials ([3]; tested at adulthood): not influenced
- AUC 0-last, brain [4, 6]: 189 pmol·min/mg
- AUC 0-last, plasma [4, 6]: 273 µM·min
- AUC 0-∞, brain [4, 6]: 191 pmol·min/mg
- AUC 0-∞, plasma [4, 6]: 276 µM·min
- Brain AUC /Plasma AUC [4, 6]: 0.693
- Brain concentration [4, 7]: 4.67 ± 1.60 pmol/mg tissue
- Plasma concentration [4, 7]: 6490 ± 4490 nM
- peak brain level expressed as concentration ([4]; 30 min after final dose, assuming a density of 1 g/mL): 4.67 µM
- Brain concentration [4, 8]: 0.905 ± 1.09 pmol/mg tissue
- Plasma concentration [4, 8]: 1660 ± 1820 nM
- Brain concentration [4, 9]: 0.0772 ± 0.0211 pmol/mg tissue
- Plasma concentration [4, 9]: 122 ± 76.2 nM
- Brain concentration ([4]; 4 h after final dose, 25 mg/kg s.c. at 0, 2 and 24 h, p21 mice, 25 mg/kg): 0.0209 ± 0.0058 pmol/mg tissue and 0.0209 ± 0.00578 pmol/mg tissue
- time to peak concentration in brain ([4]; s.c., after the final dose): 30 min
- time to peak concentration in plasma ([4]; s.c., after the final dose): 30 min
- cell death by TUNEL staining compared to vehicle-treated controls [5]: A similar degree of cell death
- cell death by activated caspase-3 compared to vehicle-treated controls [5]: A similar degree of cell death
